Laboratory results as given in US11530221B2, “Pyrimido[4,5-d]pyrimidin-2-one derivatives as protein kinase inhibitors” (KOREA INSTITUTE OF SCIENCE AND TECHNOLOGY, priority 2019, dated 2022).
Where two headings read alike, the source gives them in different places. Square brackets hold non-standard residues; d marks the D form. Peptide text beside a SMILES is read from it. * marks the point of attachment. X1 = Cc1ccc(Nc2ncc3c(n2)N(C)C(=O)N(c2cc(C(=O)*)ccc2C)C3)cn1; Aze = O=C(O)[C@@H]1CCN1; Aib = CC(C)(N)C(=O)O

Assays:
Assay type in all cases: biochemical
ABL1 = ABL1 (Homo sapiens, UniProt P00519); assay: IC50 inhibitory activity against ABL1 kinase
ABL1, sequence (P00519 whole entry): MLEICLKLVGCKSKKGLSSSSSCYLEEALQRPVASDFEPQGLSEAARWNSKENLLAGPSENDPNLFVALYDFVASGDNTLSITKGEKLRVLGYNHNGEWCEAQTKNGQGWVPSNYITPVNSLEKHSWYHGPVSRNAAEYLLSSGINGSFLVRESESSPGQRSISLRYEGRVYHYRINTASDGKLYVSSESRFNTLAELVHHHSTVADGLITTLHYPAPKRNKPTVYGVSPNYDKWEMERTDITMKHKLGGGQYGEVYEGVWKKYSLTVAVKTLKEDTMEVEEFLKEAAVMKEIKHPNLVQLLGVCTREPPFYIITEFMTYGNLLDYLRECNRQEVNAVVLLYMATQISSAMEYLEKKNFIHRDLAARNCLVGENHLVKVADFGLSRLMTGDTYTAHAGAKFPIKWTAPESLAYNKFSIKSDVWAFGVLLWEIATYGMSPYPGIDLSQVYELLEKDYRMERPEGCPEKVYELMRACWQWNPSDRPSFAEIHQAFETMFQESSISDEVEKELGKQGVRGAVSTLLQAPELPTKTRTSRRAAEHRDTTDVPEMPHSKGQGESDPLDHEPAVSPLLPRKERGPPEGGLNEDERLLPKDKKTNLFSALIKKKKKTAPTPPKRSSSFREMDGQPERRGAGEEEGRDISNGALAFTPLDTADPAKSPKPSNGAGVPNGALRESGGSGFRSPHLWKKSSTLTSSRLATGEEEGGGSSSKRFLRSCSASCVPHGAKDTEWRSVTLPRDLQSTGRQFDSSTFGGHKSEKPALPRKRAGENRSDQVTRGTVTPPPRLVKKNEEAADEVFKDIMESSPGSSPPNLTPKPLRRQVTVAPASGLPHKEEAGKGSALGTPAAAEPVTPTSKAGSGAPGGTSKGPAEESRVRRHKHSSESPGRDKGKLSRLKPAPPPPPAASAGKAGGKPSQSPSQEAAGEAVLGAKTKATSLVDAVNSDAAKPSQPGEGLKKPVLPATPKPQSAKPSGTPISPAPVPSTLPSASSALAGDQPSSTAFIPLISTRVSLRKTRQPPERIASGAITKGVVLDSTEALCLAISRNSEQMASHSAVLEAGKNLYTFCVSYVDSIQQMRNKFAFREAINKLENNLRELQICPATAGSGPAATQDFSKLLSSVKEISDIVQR
Description: (§1) IC50 values were calculated by measuring the inhibitory activity against LCK, c-Src, p38a/MAPK14, ABL1, DDR1 and FGR kinases of the compounds of the present invention.

c-Src = c-Src (Homo sapiens, UniProt P12931); assay: IC50 inhibitory activity against c-Src kinase
c-Src, sequence (P12931 whole entry): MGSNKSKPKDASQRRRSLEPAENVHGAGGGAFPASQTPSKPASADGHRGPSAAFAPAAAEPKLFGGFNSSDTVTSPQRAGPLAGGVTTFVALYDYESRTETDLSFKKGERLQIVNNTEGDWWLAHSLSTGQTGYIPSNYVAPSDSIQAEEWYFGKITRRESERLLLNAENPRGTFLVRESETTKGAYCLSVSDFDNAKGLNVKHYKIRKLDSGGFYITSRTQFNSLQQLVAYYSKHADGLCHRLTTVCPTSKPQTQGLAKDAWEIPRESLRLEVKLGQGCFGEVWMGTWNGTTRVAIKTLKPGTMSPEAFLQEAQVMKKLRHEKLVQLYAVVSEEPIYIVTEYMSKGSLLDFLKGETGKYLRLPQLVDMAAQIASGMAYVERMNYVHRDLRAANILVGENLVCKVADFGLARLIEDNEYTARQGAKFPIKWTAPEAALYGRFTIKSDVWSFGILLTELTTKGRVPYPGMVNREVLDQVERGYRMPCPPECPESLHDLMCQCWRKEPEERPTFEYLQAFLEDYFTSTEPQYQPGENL
Description: as §1

LCK = LCK (Homo sapiens, UniProt P06239); assay: IC50 inhibitory activity against LCK kinase
LCK, sequence (P06239 whole entry): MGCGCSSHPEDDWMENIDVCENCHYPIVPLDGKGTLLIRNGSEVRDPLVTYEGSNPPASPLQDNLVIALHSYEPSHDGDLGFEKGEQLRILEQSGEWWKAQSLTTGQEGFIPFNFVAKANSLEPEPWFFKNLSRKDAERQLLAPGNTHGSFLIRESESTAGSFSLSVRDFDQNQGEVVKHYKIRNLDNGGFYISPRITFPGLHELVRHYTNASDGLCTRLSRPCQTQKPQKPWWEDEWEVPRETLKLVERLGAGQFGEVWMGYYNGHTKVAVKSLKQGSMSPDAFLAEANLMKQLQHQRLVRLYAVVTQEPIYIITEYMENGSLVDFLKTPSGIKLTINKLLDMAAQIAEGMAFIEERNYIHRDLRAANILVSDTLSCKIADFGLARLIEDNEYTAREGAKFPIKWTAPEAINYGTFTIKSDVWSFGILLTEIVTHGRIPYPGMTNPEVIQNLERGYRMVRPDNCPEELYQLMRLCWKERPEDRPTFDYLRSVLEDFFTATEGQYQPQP
Description: as §1

SMILES | IC50 (ABL1) | IC50 (c-Src) | IC50 (LCK) | IC50 (ABL1; read-out: ABL1 IC50) | IC50 (c-Src; read-out: c-Src IC50) | IC50 (LCK; read-out: LCK IC50)
Cc1ccc(Nc2ncc3c(n2)N(C)C(=O)N(c2cc(C(=O)N[C@H](C(=O)N4CC[C@H]4C(=O)NC(C)(C)C(=O)N[C@@H](CC(C)C)C(=O)N(C)C)C(C)C)ccc2C)C3)cn1 [Example 15, (S)—N-(1-(((S)-1-(dimethylamino)-4-methyl-1-oxopentan-2-yl)amino)-2-methyl-1-oxopropan-2-yl)-1-((4-methyl-3-(1-methyl-7-((6-methylpyridin-3-yl)amino)-2-oxo-1,4-dihydropyrimido[4,5-d]pyrimidin-3(2H)-yl)benzoyl)-L-valyl)azetidine-2-carboxamide] (X1-V[Aze][Aib]L-NMe2) | 1 to 200 nM | > 600 nM | 200 to 400 nM | – | – | –
CC[C@H](C)[C@H](NC(=O)c1ccc(C)c(N2Cc3cnc(Nc4ccc(C)nc4)nc3N(C)C2=O)c1)C(=O)N1CCC[C@H]1C(=O)NC(C)(C)C(=O)N[C@@H](CC(C)C)C(=O)N(C)C [Example 16, (S)—N-(1-(((S)-1-(dimethylamino)-4-methyl-1-oxopentan-2-yl)amino)-2-methyl-1-oxopropan-2-yl)-1-((4-methyl-3-(1-methyl-7-((6-methylpyridin-3-yl)amino)-2-oxo-1,4-dihydropyrimido[4,5-d]pyrimidin-3(2H)-yl)benzoyl)-L-isoleucyl)pyrrolidine-2-carboxamide] (X1-IP[Aib]L-NMe2) | – | – | – | 1 to 200 nM | 200 to 400 nM | 1 to 200 nM
Cc1ccc(Nc2ncc3c(n2)N(C)C(=O)N(c2cc(C(=O)N[C@@H](C)C(=O)N4CCC[C@H]4C(=O)NC(C)(C)C(=O)N[C@@H](CC(C)C)C(=O)N(C)C)ccc2C)C3)cn1 [Example 17, (S)—N-(1-(((S)-1-(dimethylamino)-4-methyl-1-oxopentan-2-yl)amino)-2-methyl-1-oxopropan-2-yl)-1-((4-methyl-3-(1-methyl-7-((6-methylpyridin-3-yl)amino)-2-oxo-1,4-dihydropyrimido[4,5-d]pyrimidin-3(2H)-yl)benzoyl)-L-alanyl)pyrrolidine-2-carboxamide] (X1-AP[Aib]L-NMe2) | – | – | – | 1 to 200 nM | 200 to 400 nM | 1 to 200 nM
Cc1ccc(Nc2ncc3c(n2)N(C)C(=O)N(c2cc(C(=O)NCC(=O)N4CCC[C@H]4C(=O)NC(C)(C)C(=O)N[C@@H](CC(C)C)C(=O)N(C)C)ccc2C)C3)cn1 [Example 18, (S)—N-(1-(((S)-1-(dimethylamino)-4-methyl-1-oxopentan-2-yl)amino)-2-methyl-1-oxopropan-2-yl)-1-((4-methyl-3-(1-methyl-7-((6-methylpyridin-3-yl)amino)-2-oxo-1,4-dihydropyrimido[4,5-d]pyrimidin-3(2H)-yl)benzoyl)glycyl)pyrrolidine-2-carboxamide] (X1-GP[Aib]L-NMe2) | 1 to 200 nM | 400 to 600 nM | 200 to 400 nM | – | – | –
Cc1ccc(Nc2ncc3c(n2)N(C)C(=O)N(c2cc(NC(=O)c4ccc5c(c4)NC(=O)[C@H](Cc4cccc(F)c4)N=C5c4ccccc4)ccc2C)C3)cn1 [Example 27, (S)-3-(3-fluorobenzyl)-N-(4-methyl-3-(1-methyl-7-((6-methylpyridin-3-yl)amino)-2-oxo-1,4-dihydropyrimido[4,5-d]pyrimidin-3(2H)-yl)phenyl)-2-oxo-5-phenyl-2,3-dihydro-1H-benzo[e][1,4]diazepine-8-carboxamide] | – | – | – | – | 1 to 200 nM | 1 to 200 nM
Cc1ccc(Nc2ncc3c(n2)N(C)C(=O)N(c2cc(NC(=O)c4ccc5c(c4)NC(=O)[C@H](Cc4ccc(F)cc4)N=C5c4ccccc4)ccc2C)C3)cn1 [Example 28, (S)-3-(4-fluorobenzyl)-N-(4-methyl-3-(1-methyl-7-((6-methylpyridin-3-yl)amino)-2-oxo-1,4-dihydropyrimido[4,5-d]pyrimidin-3(2H)-yl)phenyl)-2-oxo-5-phenyl-2,3-dihydro-1H-benzo[e][1,4]diazepine-8-carboxamide] | – | – | – | – | 1 to 200 nM | 1 to 200 nM
Cc1ccc(Nc2ncc3c(n2)N(C)C(=O)N(c2cc(NC(=O)c4ccc5c(c4)NC(=O)[C@H](Cc4ccccc4C)N=C5c4ccccc4)ccc2C)C3)cn1 [Example 29, (S)—N-(4-methyl-3-(1-methyl-7-((6-methylpyridin-3-yl)amino)-2-oxo-1,4-dihydropyrimido[4,5-d]pyrimidin-3(2H)-yl)phenyl)-3-(2-methylbenzyl)-2-oxo-5-phenyl-2,3-dihydro-1H-benzo[e][1,4]diazepine-8-carboxamide] | – | – | – | – | 1 to 200 nM | 1 to 200 nM
Cc1ccc(Nc2ncc3c(n2)N(C)C(=O)N(c2cc(NC(=O)c4ccc5c(c4)NC(=O)[C@@H](Cc4ccccc4)N=C5c4ccccc4)ccc2C)C3)cn1 [Example 36, (R)-3-benzyl-N-(4-methyl-3-(1-methyl-7-((6-methylpyridin-3-yl)amino)-2-oxo-1,4-dihydropyrimido[4,5-d]pyrimidin-3(2H)-yl)phenyl)-2-oxo-5-phenyl-2,3-dihydro-1H-benzo[e][1,4]diazepine-8-carboxamide] | – | – | – | – | 1 to 200 nM | 1 to 200 nM
Cc1ccc(Nc2ncc3c(n2)N(C)C(=O)N(c2cc(NC(=O)c4ccc5c(c4)N(CC(C)C)C(=O)[C@H](CC(C)C)N=C5c4ccccc4)ccc2C)C3)cn1 [Example 39, (S)-1,3-diisobutyl-N-(4-methyl-3-(1-methyl-7-((6-methylpyridin-3-yl)amino)-2-oxo-1,4-dihydropyrimido[4,5-d]pyrimidin-3(2H)-yl)phenyl)-2-oxo-5-phenyl-2,3-dihydro-1H-benzo[e][1,4]diazepine-8-carboxamide] | – | – | – | – | 400 to 600 nM | 1 to 200 nM
CC1=N[C@@H](CC(C)C)C(=O)N(C)c2cc(C(=O)Nc3ccc(C)c(N4Cc5cnc(Nc6ccc(C)nc6)nc5N(C)C4=O)c3)ccc21 [Example 40, (S)-3-isobutyl-1,5-dimethyl-N-(4-methyl-3-(1-methyl-7-((6-methylpyridin-3-yl)amino)-2-oxo-1,4-dihydropyrimido[4,5-d]pyrimidin-3(2H)-yl)phenyl)-2-oxo-2,3-dihydro-1H-benzo[e][1,4]diazepine-8-carboxamide] | – | – | – | – | 1 to 200 nM | 1 to 200 nM
CC1=N[C@@H](CC(C)C)C(=O)N(Cc2ccccc2)c2cc(C(=O)Nc3ccc(C)c(N4Cc5cnc(Nc6ccc(C)nc6)nc5N(C)C4=O)c3)ccc21 [Example 41, (S)-1-benzyl-3-isobutyl-5-methyl-N-(4-methyl-3-(1-methyl-7-((6-methylpyridin-3-yl)amino)-2-oxo-1,4-dihydropyrimido[4,5-d]pyrimidin-3(2H)-yl)phenyl)-2-oxo-2,3-dihydro-1H-benzo[e][1,4]diazepine-8-carboxamide] | – | – | – | – | 1 to 200 nM | 1 to 200 nM
COCCN1C(=O)[C@H](CC(C)C)N=C(c2ccccc2)c2ccc(C(=O)Nc3ccc(C)c(N4Cc5cnc(Nc6ccc(C)nc6)nc5N(C)C4=O)c3)cc21 [Example 42, (S)-3-isobutyl-1-(2-methoxyethyl)-N-(4-methyl-3-(1-methyl-7-((6-methylpyridin-3-yl)amino)-2-oxo-1,4-dihydropyrimido[4,5-d]pyrimidin-3(2H)-yl)phenyl)-2-oxo-5-phenyl-2,3-dihydro-1H-benzo[e][1,4]diazepine-8-carboxamide] | – | – | – | – | 1 to 200 nM | 1 to 200 nM
Cc1ccc(Nc2ncc3c(n2)N(C)C(=O)N(c2cc(NC(=O)c4ccc5c(c4)N(CC(=O)NCc4ccccc4)C(=O)[C@H](CC(C)C)N=C5c4ccccc4)ccc2C)C3)cn1 [Example 43, (S)-1-(2-(benzylamino)-2-oxoethyl)-3-isobutyl-N-(4-methyl-3-(1-methyl-7-((6-methylpyridin-3-yl)amino)-2-oxo-1,4-dihydropyrimido[4,5-d]pyrimidin-3(2H)-yl)phenyl)-2-oxo-5-phenyl-2,3-dihydro-1H-benzo[e][1,4]diazepine-8-carboxamide] | – | – | – | – | 1 to 200 nM | 1 to 200 nM
C=CCCC1=N[C@@H](CC(=O)Nc2ccc(C)c(N3Cc4cnc(Nc5ccc(C)nc5)nc4N(C)C3=O)c2)C(=O)Nc2ccccc21 [Example 44, (S)-2-(5-(but-3-en-1-yl)-2-oxo-2,3-dihydro-1H-benzo[e][1,4]diazepin-3-yl)-N-(4-methyl-3-(1-methyl-7-((6-methylpyridin-3-yl)amino)-2-oxo-1,4-dihydropyrimido[4,5-d]pyrimidin-3(2H)-yl)phenyl)acetamide] | – | – | – | – | 1 to 200 nM | 1 to 200 nM
C=CCCC1=N[C@@H](CC(=O)Nc2ccc(C)c(N3Cc4cnc(Nc5ccc(C)nc5)nc4N(C)C3=O)c2)C(=O)N(C)c2ccccc21 [Example 45, (S)-2-(5-(but-3-en-1-yl)-1-methyl-2-oxo-2,3-dihydro-1H-benzo[e][1,4]diazepin-3-yl)-N-(4-methyl-3-(1-methyl-7-((6-methylpyridin-3-yl)amino)-2-oxo-1,4-dihydropyrimido[4,5-d]pyrimidin-3(2H)-yl)phenyl)acetamide] | – | – | – | – | 1 to 200 nM | 1 to 200 nM
C=CCCC1=N[C@@H](CC(=O)Nc2ccc(C)c(N3Cc4cnc(Nc5ccc(C)nc5)nc4N(C)C3=O)c2)C(=O)N(Cc2ccccc2)c2ccccc21 [Example 46, (S)-2-(1-benzyl-5-(but-3-en-1-yl)-2-oxo-2,3-dihydro-1H-benzo[e][1,4]diazepin-3-yl)-N-(4-methyl-3-(1-methyl-7-((6-methylpyridin-3-yl)amino)-2-oxo-1,4-dihydropyrimido[4,5-d]pyrimidin-3(2H)-yl)phenyl)acetamide] | – | – | – | – | 1 to 200 nM | 1 to 200 nM
Cc1ccc(Nc2ncc3c(n2)N(C)C(=O)N(c2cc(NC(=O)[C@H](Cc4c[nH]c5ccccc45)NC(=O)c4ccc([N+](=O)[O-])c(OCC(C)C)c4)ccc2C)C3)cn1 [Example 55] | – | – | – | > 600 nM | – | –
